From patent publication US10966978B2, “Dose and regimen for HDM2-p53 interaction inhibitors” (Novartis AG, priority 2016, dated 2021)
Read-outs that look alike come from different tables or passages of the source.

Tested on: patients with advanced TP53 wild-type (WT) leukemias

COc1ncc(-c2nc3c(n2C(C)C)[C@H](c2ccc(Cl)cc2)N(c2cc(Cl)cn(C)c2=O)C3=O)c(OC)n1 [HDM201, (S)-5-(5-Chloro-1-methyl-2-oxo-1,2-dihydro-pyridin-3-yl)-6-(4-chloro-phenyl)-2-(2,4-dimethoxy-pyrimidin-5-yl)-1-isopropyl-5,6-dihydro-1H-pyrrolo[3,4-d]imidazol-4-one]
AE: Nausea (Regimen 2C N = 8, All Grades): 3 (37.5) n (%)
AE: Neutropenia/Neutrophil Count Decreased (Regimen 2C N = 8, All Grades): 4 (50.0) n (%)
AE: Oedema (Regimen 2C N = 8, All Grades): 0 n (%)
AE: Oedema Peripheral (Regimen 2C N = 8, All Grades): 0 n (%)
AE: Oral Disorder (Regimen 2C N = 8, All Grades): 0 n (%)
AE: Pain In Extremity (Regimen 2C N = 8, All Grades): 0 n (%)
AE: Pancytopenia (Regimen 2C N = 8, All Grades): 1 (12.5) n (%)
AE: Pneumonia (Regimen 2C N = 8, All Grades): 0 n (%)
AE: Pollakiuria (Regimen 2C N = 8, All Grades): 0 n (%)
AE: Pyrexia (Regimen 2C N = 8, All Grades): 0 n (%)
AE: Rash (Regimen 2C N = 8, All Grades): 0 n (%)
AE: Rash Erythematous (Regimen 2C N = 8, All Grades): 0 n (%)
AE: Rash Papular (Regimen 2C N = 8, All Grades): 0 n (%)
AE: Rectal Haemorrhage (Regimen 2C N = 8, All Grades): 0 n (%)
AE: Renal Failure (Regimen 2C N = 8, All Grades): 1 (12.5) n (%)
AE: Skin Exfoliation (Regimen 2C N = 8, All Grades): 0 n (%)
AE: Stomatitis (Regimen 2C N = 8, All Grades): 1 (12.5) n (%)
AE: Subarachnoid Haemorrhage (Regimen 2C N = 8, All Grades): 0 n (%)
AE: Thrombocytopenia/Platelet Count Decreased (Regimen 2C N = 8, All Grades): 5 (62.5) n (%)
AE: Total (Regimen 2C N = 8, All Grades): 8 (100) n (%)
AE: Tumour Lysis Syndrome (Regimen 2C N = 8, All Grades): 1 (12.5) n (%)
AE: Vomiting (Regimen 2C N = 8, All Grades): 1 (12.5) n (%)
AE: Weight Decreased (Regimen 2C N = 8, All Grades): 0 n (%)
AE: White Blood Cell Count Decreased (Regimen 2C N = 8, All Grades): 2 (25.0) n (%)
AE: Abdominal Discomfort (Regimen 2C N = 8, Grade 3/4): 0 n (%)
AE: Abdominal Pain (Regimen 2C N = 8, Grade 3/4): 0 n (%)
AE: Abdominal Pain Upper (Regimen 2C N = 8, Grade 3/4): 0 n (%)
AE: Amylase Increased (Regimen 2C N = 8, Grade 3/4): 0 n (%)
AE: Anaemia (Regimen 2C N = 8, Grade 3/4): 3 (37.5) n (%)
AE: Arthralgia (Regimen 2C N = 8, Grade 3/4): 0 n (%)
AE: Asthenia (Regimen 2C N = 8, Grade 3/4): 0 n (%)
AE: Atrial Fibrillation (Regimen 2C N = 8, Grade 3/4): 0 n (%)
AE: Atypical Pneumonia (Regimen 2C N = 8, Grade 3/4): 0 n (%)
AE: Balanitis Candida (Regimen 2C N = 8, Grade 3/4): 0 n (%)
AE: Blood Alkaline Phosphatase Increased (Regimen 2C N = 8, Grade 3/4): 0 n (%)
AE: Blood Bilirubin Increased (Regimen 2C N = 8, Grade 3/4): 0 n (%)
AE: Blood Creatinine Increased (Regimen 2C N = 8, Grade 3/4): 1 (12.5) n (%)
AE: Blood Phosphorus Increased (Regimen 2C N = 8, Grade 3/4): 0 n (%)
AE: Blood Uric Acid Increased (Regimen 2C N = 8, Grade 3/4): 0 n (%)
AE: Bone Marrow Failure (Regimen 2C N = 8, Grade 3/4): 0 n (%)
AE: C-Reactive Protein Increased (Regimen 2C N = 8, Grade 3/4): 0 n (%)
AE: Cardiac Failure (Regimen 2C N = 8, Grade 3/4): 0 n (%)
AE: Cellulitis (Regimen 2C N = 8, Grade 3/4): 0 n (%)
AE: Chronic Graft Versus Host Disease (Regimen 2C N = 8, Grade 3/4): 0 n (%)
AE: Conjunctival Haemorrhage (Regimen 2C N = 8, Grade 3/4): 0 n (%)
AE: Constipation (Regimen 2C N = 8, Grade 3/4): 0 n (%)
AE: Cough (Regimen 2C N = 8, Grade 3/4): 0 n (%)
AE: Cystitis Viral (Regimen 2C N = 8, Grade 3/4): 0 n (%)
AE: Cytomegalovirus Infection (Regimen 2C N = 8, Grade 3/4): 0 n (%)
AE: Decreased Appetite (Regimen 2C N = 8, Grade 3/4): 0 n (%)
AE: Diarrhoea (Regimen 2C N = 8, Grade 3/4): 0 n (%)
AE: Dyspepsia (Regimen 2C N = 8, Grade 3/4): 0 n (%)
AE: Dyspnoea (Regimen 2C N = 8, Grade 3/4): 0 n (%)
AE: Epistaxis (Regimen 2C N = 8, Grade 3/4): 0 n (%)
AE: Fatigue (Regimen 2C N = 8, Grade 3/4): 0 n (%)
AE: Febrile Neutropenia (Regimen 2C N = 8, Grade 3/4): 3 (37.5) n (%)
AE: Gamma-Glutamyltransferase Increased (Regimen 2C N = 8, Grade 3/4): 0 n (%)
AE: General Physical Health Deterioration (Regimen 2C N = 8, Grade 3/4): 0 n (%)
AE: Gingival Bleeding (Regimen 2C N = 8, Grade 3/4): 0 n (%)
AE: Graft Versus Host Disease (Regimen 2C N = 8, Grade 3/4): 0 n (%)
AE: Haemoglobin Decreased (Regimen 2C N = 8, Grade 3/4): 0 n (%)
AE: Headache (Regimen 2C N = 8, Grade 3/4): 0 n (%)
AE: Hyperbilirubinaemia (Regimen 2C N = 8, Grade 3/4): 0 n (%)
AE: Hyperglycaemia (Regimen 2C N = 8, Grade 3/4): 0 n (%)
AE: Hyperkalaemia (Regimen 2C N = 8, Grade 3/4): 0 n (%)
AE: Hyperphosphataemia (Regimen 2C N = 8, Grade 3/4): 0 n (%)
AE: Hypoalbuminaemia (Regimen 2C N = 8, Grade 3/4): 0 n (%)
AE: Hypocalcaemia (Regimen 2C N = 8, Grade 3/4): 0 n (%)
AE: Hypokalaemia (Regimen 2C N = 8, Grade 3/4): 0 n (%)
AE: Hypomagnesaemia (Regimen 2C N = 8, Grade 3/4): 0 n (%)
AE: Hyponatraemia (Regimen 2C N = 8, Grade 3/4): 0 n (%)
AE: Hypophosphataemia (Regimen 2C N = 8, Grade 3/4): 0 n (%)
AE: Hypotension (Regimen 2C N = 8, Grade 3/4): 0 n (%)
AE: Infection (Regimen 2C N = 8, Grade 3/4): 0 n (%)
AE: Infective Glossitis (Regimen 2C N = 8, Grade 3/4): 0 n (%)
AE: Iron Overload (Regimen 2C N = 8, Grade 3/4): 0 n (%)
AE: Leukopenia (Regimen 2C N = 8, Grade 3/4): 0 n (%)
AE: Lip Oedema (Regimen 2C N = 8, Grade 3/4): 0 n (%)
AE: Lipase Increased (Regimen 2C N = 8, Grade 3/4): 0 n (%)
AE: Macular Oedema (Regimen 2C N = 8, Grade 3/4): 0 n (%)
AE: Malaise (Regimen 2C N = 8, Grade 3/4): 0 n (%)
AE: Mouth Haemorrhage (Regimen 2C N = 8, Grade 3/4): 0 n (%)
AE: Nausea (Regimen 2C N = 8, Grade 3/4): 0 n (%)
AE: Neutropenia/Neutrophil Count Decreased (Regimen 2C N = 8, Grade 3/4): 3 (37.5) n (%)
AE: Oedema (Regimen 2C N = 8, Grade 3/4): 0 n (%)
AE: Oedema Peripheral (Regimen 2C N = 8, Grade 3/4): 0 n (%)
AE: Oral Disorder (Regimen 2C N = 8, Grade 3/4): 0 n (%)
AE: Pain In Extremity (Regimen 2C N = 8, Grade 3/4): 0 n (%)
AE: Pancytopenia (Regimen 2C N = 8, Grade 3/4): 1 (12.5) n (%)
AE: Pneumonia (Regimen 2C N = 8, Grade 3/4): 0 n (%)
AE: Pollakiuria (Regimen 2C N = 8, Grade 3/4): 0 n (%)
AE: Pyrexia (Regimen 2C N = 8, Grade 3/4): 0 n (%)
AE: Rash (Regimen 2C N = 8, Grade 3/4): 0 n (%)
AE: Rash Erythematous (Regimen 2C N = 8, Grade 3/4): 0 n (%)
AE: Rash Papular (Regimen 2C N = 8, Grade 3/4): 0 n (%)
AE: Rectal Haemorrhage (Regimen 2C N = 8, Grade 3/4): 0 n (%)
AE: Renal Failure (Regimen 2C N = 8, Grade 3/4): 1 (12.5) n (%)
AE: Skin Exfoliation (Regimen 2C N = 8, Grade 3/4): 0 n (%)
AE: Stomatitis (Regimen 2C N = 8, Grade 3/4): 0 n (%)
AE: Subarachnoid Haemorrhage (Regimen 2C N = 8, Grade 3/4): 0 n (%)
AE: Thrombocytopenia/Platelet Count Decreased (Regimen 2C N = 8, Grade 3/4): 5 (62.5) n (%)
AE: Total (Regimen 2C N = 8, Grade 3/4): 5 (62.5) n (%)
AE: Tumour Lysis Syndrome (Regimen 2C N = 8, Grade 3/4): 1 (12.5) n (%)
AE: Vomiting (Regimen 2C N = 8, Grade 3/4): 0 n (%)
AE: Weight Decreased (Regimen 2C N = 8, Grade 3/4): 0 n (%)
AE: White Blood Cell Count Decreased (Regimen 2C N = 8, Grade 3/4): 2 (25.0) n (%)
